Test [1] concerns rodent GSK3β homologs. The settings on record: cited from earlier work.
In test [2] the test system is iPS cells. As to the kind of experiment: Differentiation of iPS cells into FOXA2+/LMX1+ cells or dopamine neurons. The format is cell-based, human. The settings on record: increased concentrations, e.g. 2 μM as compared to 0.2 μM. From the text: Disclosed is an in vitro method for preparing a cell composition comprising modified human cells that express both forkhead box protein A2 (FOXA2) and LIM homeobox transcription factor 1 (LMX1) (FOXA2^+/LMX1^+ cells) comprising culturing modified human pluripotent cells in the presence of the following signaling modulators: (a) a single inhibitor of Small Mothers Against Decapentaplegic (SMAD) signaling, (b) at least one activator of Sonic hedgehog (SHH) signaling, and (c) at least one activator of wingless (Wnt) signaling; and culturing said cells in the presence of said modulators for a period of time sufficient to provide a cell composition comprising said FOXA2^+/LMX1^+ cells. In some preferred embodiments, the LMX1 is LIM homeobox transcription factor 1 alpha (LMX1A). In some embodiments, the inhibitor of SMAD signaling is a BMP inhibitor such as, […]., at a concentration of from about 0.2 μM to about 4 μM, more preferably greater than 0.2 μM to about 4 μM, about 1 μM, 2 μM, 3 μM, 4 μM, or any range derivable therein), dorsomorphin, DMH-1, or noggin. […] In some embodiments, the BMP inhibitor is LDN-193189. The SMAD signaling inhibitor may be a TGFβ inhibitor (a TGFβ signaling pathway inhibitor) such as, for example, SB431542 (e.g., SB431542 present at a concentration of about 5-100, 20-60, 30-50 μM, or about 40 μM). […]

The target in test [3] is Ago (Homo sapiens, UniProt Q9UKV8). The settings on record: cited from earlier work.
Ago, sequence (Q9UKV8 whole entry): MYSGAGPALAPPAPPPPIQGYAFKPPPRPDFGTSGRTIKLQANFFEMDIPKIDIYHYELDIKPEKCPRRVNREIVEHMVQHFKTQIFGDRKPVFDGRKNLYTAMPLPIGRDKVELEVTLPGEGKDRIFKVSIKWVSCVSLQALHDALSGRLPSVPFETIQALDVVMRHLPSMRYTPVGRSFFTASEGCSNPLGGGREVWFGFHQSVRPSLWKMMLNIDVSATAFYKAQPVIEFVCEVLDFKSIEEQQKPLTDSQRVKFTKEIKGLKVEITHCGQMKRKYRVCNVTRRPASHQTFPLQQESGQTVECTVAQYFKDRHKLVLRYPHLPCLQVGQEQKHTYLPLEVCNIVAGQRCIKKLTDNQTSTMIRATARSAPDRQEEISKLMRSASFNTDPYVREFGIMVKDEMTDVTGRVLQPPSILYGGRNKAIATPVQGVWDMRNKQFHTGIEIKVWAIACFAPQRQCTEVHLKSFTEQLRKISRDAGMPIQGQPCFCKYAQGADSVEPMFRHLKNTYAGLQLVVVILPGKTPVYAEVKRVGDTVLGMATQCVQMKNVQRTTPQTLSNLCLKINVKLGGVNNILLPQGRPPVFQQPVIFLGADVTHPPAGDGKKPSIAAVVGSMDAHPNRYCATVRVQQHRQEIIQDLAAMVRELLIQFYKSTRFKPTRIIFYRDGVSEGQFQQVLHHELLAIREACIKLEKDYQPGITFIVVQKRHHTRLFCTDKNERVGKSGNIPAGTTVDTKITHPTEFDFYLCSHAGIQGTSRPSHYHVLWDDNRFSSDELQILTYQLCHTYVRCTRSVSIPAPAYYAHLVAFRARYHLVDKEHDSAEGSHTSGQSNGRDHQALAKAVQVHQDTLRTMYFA

Consider `Cc1c[nH]c(-c2cnc(NCCNc3ccc(C#N)cn3)nc2-c2ccc(Cl)cc2Cl)n1` [CHIR99021, 6-(2-(4-(2,4-dichlorophenyl)-5-(4-methyl-1H-imidazol-2-yl)pyrimidin-2-ylamino)ethylamino) nicotinonitrile], for which the “IC50 values against rodent GSK3β homologs” value in test [1] is listed as “nanomolar”.
`c1ccc2c(-c3cnn4cc(-c5ccc(N6CCNCC6)cc5)cnc34)ccnc2c1` [LDN-193189, 4-(6-(4-(piperazin-1-yl)phenyl)pyrazolo[1,5-a]pyrimidin-3-yl) quinoline]: the “differentiation of iPS cells into FOXA2+/LMX1+ cells or dopamine neurons” value in test [2] is reported as “improved differentiation”.
Turning to UUAAUGCUAAUCGUGAUAGGGGUU [miR-155-5p], the “Ago binding affinity of 5′ terminal UMP relative to the CMP nucleotide on the 5′ terminus of the miR-155-3p strand” value in test [3] is recorded as “approximately 20 times”.

The values above are taken from US20260216250A1, “Compositions and Methods for Treating a Neurologic Disease Using Dopaminergic Neurons with Enhanced Anti-inflammatory Activity” (Kenai Therapeutics Inc., priority 2023, published 2026).
